US11701341B2, “Use of 3-[5-amino-4-(3-cyanobenzoyl)-pyrazol-1-yl]-n-cyclopropyl-4-methylbenzamide in the treatment of acute exacerbations of chronic obstructive pulmonary disease” (MEREO BIOPHARMA 1 LIMITED, priority 2017, dated 2023)

How the values were obtained:
AECOPD = details: single oral dose; cited from earlier work
fibrinogen = test: AETHER exploratory outcome: fibrinogen measured in patient blood; type: in vivo, human; details: high and low dose over 5 days; including patients with <2% eosinophils; maximal at Day 7; FIG. 4
Text: (§1) A Phase 2 trial (referred to as AETHER) was a double-blind, randomised, placebo-controlled clinical study investigating the use of BCT-197, on top of Standard of Care, for the treatment of patients with AECOPD. Standard of Care included the addition of steroids and/or antibiotics to a patient's chronic COPD medication and symptomatic bronchodilators. Following baseline assessment, 282 eligible patients were randomised to receive either two different dose regimens of BCT-197 or placebo (three doses over five days). The primary endpoint was a comparison of change in forced expiratory volume in 1 second (FEV1) from baseline to day 7 within each arm of the study.
(§2) Patients received one of two oral dosing regimens of 3-[5-amino-4-(3-cyanobenzoyl)-pyrazol-1-yl]-N-cyclopropyl-4-methylbenzamide or matching oral placebo administered according to the dosing schedules shown in Table 1.
(§3) A further exploratory outcome included over the treatment period to Day 5 and BCT197 systemic exposure (to Day 14) were the inflammatory biomarkers high sensitivity C-Reactive Protein (hsCRP) and fibrinogen measured in patient blood. […] This was maximal at Day 7 (FIGS. 3 and 4) coincident with the highest improvement in FEV1 (FIG. 2) in response to BCT197 in the same patient population with <2% eosinophils.

patients with AECOPD = test: Phase 2 trial (AETHER): change in FEV1 from baseline to Day 7, on top of Standard of Care; type: in vivo, human; details: for improvement in FEV1 (change from baseline to Day 7): sub-group with blood eosinophils <2%, oral, three doses over five days (Days 1, 3, 5), on top of Standard of Care, FIG. 1, FIG. 2
Text: as §1
The trial assessed adult patients ≥40 years with an acute exacerbation of COPD (as defined by increase in symptoms of cough, and/or sputum and/or breathlessness that required addition of antibiotics and or systemic corticosteroids to their regular treatment).
Patients received one of two oral dosing regimens of 3-[5-amino-4-(3-cyanobenzoyl)-pyrazol-1-yl]-N-cyclopropyl-4-methylbenzamide or matching oral placebo administered according to the dosing schedules shown in Table 1. […]
Efficacy of treatment was measured by the primary endpoint of change in FEV1 from baseline (before treatment) to Day 7. Patients with COPD and low eosinophils (determined by blood percentages or absolute counts) are considered to be poorly responsive to treatment of acute exacerbations using known treatments.

[1] = tested on: high sensitivity C-Reactive Protein (hsCRP); test: AETHER exploratory outcome: hsCRP measured in patient blood; type: in vivo, human; details: high and low dose over 5 days; including patients with <2% eosinophils; maximal at Day 7; FIG. 3
Text: as §1, §2, §3

Cc1ccc(C(=O)NC2CC2)cc1-n1ncc(C(=O)c2cccc(C#N)c2)c1N [BCT197, 3-[5-Amino-4-(3-cyanobenzoyl)-pyrazol-1-yl]-N-cyclopropyl-4-methylbenzamide]
effect on recovery of AECOPD to the stable disease state (AECOPD): accelerates the recovery to the stable disease state
reduction versus placebo in fibrinogen from baseline (fibrinogen): dose-dependent reduction
relative difference in FEV1 response versus standard of care alone (placebo arm) (patients with AECOPD; >2% eosinophil sub-population, FIG. 1): much less than in the low eosinophil group
improvement in FEV1 (change from baseline to Day 7) (patients with AECOPD): substantial and consistent improvement in FEV1
improvement in FEV1 (change from baseline to Day 7) (patients with AECOPD; listed as compound A): significant improvement
reduction versus placebo in hsCRP from baseline [1]: dose-dependent reduction
